The values below come from ChEMBL document CHEMBL3045528, “Development of a Novel Fungicide, Cyazofamid” (J Pestic Sci, 2004).

In brackets after ≈: the same amount, converted by molar mass. Where only a bound is given, the exact number is not on record here.

Data set [1] has as its system Pseudoperonospora cubensis. Description: Antimicrobial activity against Pseudoperonospora cubensis infested in cucumber plant. The data set is classed as functional.
Data set [2] deals with Plasmopara viticola. In words: Antimicrobial activity against Plasmopara viticola infested in grapevines. The data set is classed as functional.
The subject of data set [3] is Pseudoperonospora cubensis. Description: Antimicrobial activity against Pseudoperonospora cubensis infested in melons. In kind it is functional.
Data set [4] has as its system Phytophthora infestans. In words: Antimicrobial activity against Phytophthora infestans infested in potato plant. In kind it is functional.
Data set [5] is described as follows: Solubility of the compound in water at pH 5 at 20 degC. The data set is classed as physicochemical.
Data set [6] relates to Apis mellifera. In words: Acute toxicity in Apis mellifera (honey bee) compound administered topically. The settings on record: in vivo, topical_or_ocular. The data set is classed as organism-based.
Data set [7] in a line: Acute toxicity in Pheretima sieboldi. The data set is classed as organism-based. The settings on record: metaphire sieboldi, in vivo.
The subject of data set [8] is Apis mellifera. Description: Acute toxicity in po dosed Apis mellifera (honey bee). The data set is classed as organism-based. The settings on record: in vivo.
The test system of data set [9] is Selenastrum capricornutum. Description: Toxicity in Selenastrum capricornutum. The data set is classed as organism-based.
In data set [10] the test system is Daphnia magna. Description: Toxicity in Daphnia magna. In kind it is organism-based.
Data set [11] can be described thus: Toxicity in Oncorhynchus mykiss (rainbow trout). The data set is classed as organism-based. The settings on record: in vivo.
Data set [12] is described as follows: Toxicity in Cyprinidae (carp fish). In kind it is ADME, organism-based. The settings on record: in vivo.
Data set [13] can be described thus: Acute toxicity in Rattus norvegicus (rat) administered through inhalation. The data set is classed as organism-based. The settings on record: in vivo, inhaled or intranasal.
Data set [14] is described as follows: Acute toxicity in […] dosed Rattus norvegicus (rat). In kind it is organism-based. The settings on record: in vivo.
A short description of data set [15]: Acute toxicity in po dosed Mus musculus (mouse). In kind it is organism-based. The settings on record: in vivo.
A short description of data set [16]: Acute toxicity in po dosed Rattus norvegicus (rat). In kind it is organism-based. The settings on record: in vivo.
For data set [17], the system named is Phytophthora infestans. In words: Antimicrobial activity against Phytophthora infestans infested in tomato plant. In kind it is functional.

One may read the solubility as how much of the substance goes into solution per volume. Higher therefore signals much dissolved substance. Usually NOAEL stands for the highest tested level that showed no adverse finding. Broadly, the EC50 is the midpoint of the concentration-response curve. Low readings indicate higher potency in that assay, high ones lower potency in that assay. One may read the LC50 as the concentration that kills 50% of the test population. Lower therefore signals greater toxicity. In the case of `Cc1ccc(-c2c(Cl)nc(C#N)n2S(=O)(=O)N(C)C)cc1` [Cyazofamid], the Activity in data set [1], in data set [2], in data set [3], in data set [4] and in data set [17] was 50 µg/mL in each case. The concentration in solution in data set [5] (solubility) was 0.121 µg/mL (≈ 0.373 µM). Moreover, the LD50 in data set [6] was above 100 µg; in data set [8] it was above 151.7 µg; in data set [14], above 2000 mg/kg; in [15], above 5000 mg/kg; in data set [16], above 5000 mg/kg. In data set [7], this compound came in with a no-observed-adverse-effect level (NOAEL) above 1000 mg/kg. The EC50 in [9] is 0.858 µg/mL (≈ 2.64 µM); in data set [10] it was above 0.198 µg/mL. Besides, the LC50 in [11] is above 100 µg/mL; in [12], above 69.6 µg/mL; in data set [13] it was above 5.5 µg/mL.
